Laboratory results: publication PMC12223475, “Two Key Ferredoxins for Nitrogen Fixation Have Different Specificities and Biophysical Properties” (Chemistry (Weinheim an Der Bergstrasse, Germany), 2025)

Target: T1, FdC (Rhodobacter capsulatus, UniProt D5ARY7)
T1 construct: gene fdxC; full length, N-terminal Met replaced by Strep-tag (MAWSHPQFEK), tag kept; E. coli BL21-AI; monomer
Experiment: X-ray crystallography; UV-Vis; EPR
Assay type: binding
Conditions: 1.7 Å; anaerobic crystallisation, pH 8.0; ligands C38, C43, C46, C81

T1 sequence (D5ARY7 2-95): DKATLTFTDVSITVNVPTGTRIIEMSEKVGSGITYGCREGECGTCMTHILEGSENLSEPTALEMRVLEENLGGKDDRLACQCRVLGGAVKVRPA

[S]1[Fe][S][Fe]1 [[Fe2S2]-cluster]
X-ray crystallography; UV-Vis; EPR: The globular and monomeric FdC coordinates a [Fe2S2]‐cluster
